Measurements taken from patent US20250145715A1, “B7-H3 TARGETING FUSION PROTEINS AND METHODS OF USE THEREOF” (GT Biopharma, Inc., priority 2021, published 2025).

Legend:
Type in all cases: cell-based, human
[1] = system: PC-3 spheroids; assay: PC-3 spheroid assay
Source text: FIG. 18 is a graph illustrating the size of PC-3 spheroids over time.
FIG. 19 is a graph illustrating the size of PC-3 spheroids over time.

[2] = system: OVCAR8 ovarian cancer cells; assay: NK cell CD107a / IFNγ flow cytometry against OVCAR8; settings: 30 nM, E:T 2:1, 4 hrs; vs no treatment and rhIL-15 alone
Experimental: FIG. 29A is a graph illustrating pooled proportion of NK cells from healthy donors expressing CD107a+ (degranulation) against OVCAR8 and MA148 targets. FIG. 29B is a graph illustrating pooled proportion of NK cells from healthy donors expressing IFNγ cytokine production against OVCAR8 and MA148 targets.
Healthy donor or ovarian cancer PBMC cells were incubated with ovarian tumor targets at 2:1 E:T ratio for 4 hrs with 30 nM TriKE or control condition. FIG. 30A is a graph illustrating pooled proportion of NK cells from healthy donors expressing CD107a+ (degranulation) against OVCAR8 targets (N=8). FIG. 30B is a graph illustrating pooled proportion of NK cells from healthy donors expressing IFNγ cytokine production against OVCAR8 targets (N=8). FIG. 30C is a graph illustrating pooled proportion of NK cells from healthy donors expressing CD107a+ (degranulation) against OVCAR3 targets (N=4). FIG. 30D is a graph illustrating pooled proportion of NK cells from healthy donors expressing IFNγ cytokine production against OVCAR3 targets (N=4). FIG. 30E is a graph illustrating pooled proportion of NK cells from healthy donors expressing CD107a+ (degranulation) against OVCAR5 targets (N=7). FIG. 30F is a graph illustrating pooled proportion of NK cells from healthy donors expressing IFNγ cytokine production against OVCAR5 targets (N=7). […] FIG. 30I is a graph illustrating that tumor killing was evaluated using IncuCyte imaging assay. […] The percentage of Live (Nuclight Red+Caspase 3/7−) tumor cells was quantified over a 48-h period and normalized to tumor alone. Readings were obtained every 15 min (representative of four separate experiments). * p<0.05, ** p<0.01, *** p<0.001, and **** p<0.0001.
ADCC was measured in a flow cytometry assay by evaluating degranulation via CD107a (lysosomal-associated membrane protein LAMP-1) and intracellular IFNγ production. […] Samples were washed and evaluated in an LSRII flow cytometer (BD Biosciences, San Jose, CA, USA).
The ability of cam1615B7-H3 TriKE to mediate NK cell activity against ovarian cancer cells was evaluated. […]

[3] = system: normal immune cells (PBMCs); assay: Background NK cell activity in PBMCs without tumor targets
Experimental: ADCC was measured in a flow cytometry assay by evaluating degranulation via CD107a (lysosomal-associated membrane protein LAMP-1) and intracellular IFNγ production. Upon thawing, normal donor and patient-derived PBMCs or ascites cells were rested overnight (37° C., 5% CO2) in RPMI 1640 media supplemented with 10% fetal calf serum (RPMI-10). The next morning, they were suspended with tumor-target cells or media after washing twice with RPMI-10. Cells were then incubated with TriKEs or controls for 10 min at 37° C. Fluorescein isothiocyate (FITC)-conjugated anti-human CD107a monoclonal antibody (BD Biosciences, San Jose, CA, USA) was then added. […] Samples were washed and evaluated in an LSRII flow cytometer (BD Biosciences, San Jose, CA, USA).
The ability of cam1615B7-H3 TriKE to mediate NK cell activity against ovarian cancer cells was evaluated. […] In order to determine if the individual components of the TriKE could induce NK cell activity on their own, the individual cam16 VHH, IL-15, or anti-B7-H3 scFv components were incubated with PBMCs and OVCAR8 cells and activity was determined. […] NK cell activity, from normal donor PBMCs and ascites from the peritoneal cavity of ovarian cancer patients at the time of surgery, was assessed against MA-148 cells, another high-grade serous ovarian adenocarcinoma cell line (FIGS. 29A-29B and 30G-30H). […]

Substance | PC-3 spheroid size over time [1] | killing of PC3 spheroids ([1]; photographs, FIG. 20) | NK cell degranulation against OVCAR8 [2] | NK cell intracellular IFNγ production against OVCAR8 [2] | background NK cell IFNγ [3] | background NK cell degranulation (CD107a) [3]
B7-H3 TriKE: camelid nanobodies targeting CD16 and B7-H3 joined by IL-15 and two linkers; sequence table equates the name with cam1615B7-H3 | reduce PC-3 spheroid size over time | efficient killing of PC3 spheroids | – | – | – | –
cam1615B7-H3: second-generation TriKE: humanized camelid anti-CD16 VHH, human wild-type IL-15, anti-B7-H3 mAb 376.96 scFv; SEQ ID NO:1 | – | – | robust | robust | No background noise | some background degranulation (CD107a) on NK cells in comparison to controls, but this activity was low
